# Reference: PubChem BioAssay (NCI)
#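 GI50 is the concentration that inhibits growth by half. TGI denotes the concentration required for complete inhibition of growth.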
# Key:
# Test in all cases: NCI anticancer screen, dose series, 384-well format
# [1] = test system: 786-0 renal
# [2] = test system: A498 renal
# [3] = test system: A549 NSCLC
# [4] = test system: ACHN renal
# [5] = test system: BT-549 breast
# [6] = test system: CAKI-1 renal
# [7] = test system: CCRF-CEM leukemia
# [8] = test system: DU-145 prostate
# [9] = test system: EKVX NSCLC
# [10] = test system: HCC-2998 colon
# [11] = test system: HCT-116 colon
# [12] = test system: HCT-15 colon
# [13] = test system: HL-60(TB) leukemia
# [14] = test system: HOP-62 NSCLC
# [15] = test system: HOP-92 NSCLC
# [16] = test system: HS 578T breast
# [17] = test system: IGROV1 ovarian
# [18] = test system: K-562 leukemia
# [19] = test system: KM12 colon
# [20] = test system: LOX IMVI melanoma
# [21] = test system: M14 melanoma
# [22] = test system: MALME-3M melanoma
# [23] = test system: MCF7 breast
# [24] = test system: MDA-MB-231 breast
# [25] = test system: MDA-MB-435 melanoma
# [26] = test system: MDA-MB-468 breast
# [27] = test system: MOLT-4 leukemia
# [28] = test system: NCI-H226 lung
# [29] = test system: NCI-H322M lung
# [30] = test system: NCI-H460 NSCLC
# [31] = test system: NCI-H522 lung
# [32] = test system: NCI/ADR-RES ovarian
# [33] = test system: OVCAR-3 ovarian
# [34] = test system: OVCAR-4 ovarian
# [35] = test system: OVCAR-5 ovarian
# [36] = test system: OVCAR-8 ovarian
# [37] = test system: PC-3 prostate
# [38] = test system: RPMI-8226 leukemia
# [39] = test system: RXF 393 renal
# [40] = test system: SF-268 CNS
# [41] = test system: SF-295 CNS
# [42] = test system: SF-539 CNS
# [43] = test system: SK-MEL-2 melanoma
# [44] = test system: SK-MEL-5 melanoma
# [45] = test system: SK-OV-3 ovarian
# [46] = test system: SNB-19 CNS
# [47] = test system: SNB-75 CNS
# [48] = test system: SR leukemia
# [49] = test system: SW-620 colon
# [50] = test system: T-47D breast
# [51] = test system: TK-10 renal
# [52] = test system: U251 glioblastoma
# [53] = test system: UACC-62 melanoma
# [54] = test system: UO-31 renal
structure (smiles),measurement,setting,value
Cc1cnc(NC2CCOCC2)nc1-n1cnc(C(=O)N[C@H](CN)c2cc(F)cc(Cl)c2)c1,GI50,[1],2200 nM
same,TGI,[1],16300 nM
same,GI50,[2],405 nM
same,TGI,[2],12100 nM
same,GI50,[3],42.3 nM
same,TGI,[3],18500 nM
same,GI50,[4],1270 nM
same,TGI,[4],18000 nM
same,GI50,[5],2210 nM
same,TGI,[5],13000 nM
same,GI50,[6],70.5 nM
same,TGI,[6],11500 nM
same,GI50,[7],1470 nM
same,TGI,[7],3190 nM
same,GI50,[8],768 nM
same,TGI,[8],25500 nM
same,GI50,[9],524 nM
same,TGI,[9],14400 nM
same,GI50,[10],< 10 nM
same,TGI,[10],12.3 nM
same,GI50,[11],< 10 nM
same,TGI,[11],34.8 nM
same,GI50,[12],2780 nM
same,TGI,[12],20800 nM
same,GI50,[13],17.2 nM
same,TGI,[13],1240 nM
same,GI50,[14],1260 nM
same,TGI,[14],17300 nM
same,GI50,[15],23.8 nM
same,TGI,[15],81.4 nM
same,GI50,[16],509 nM
same,TGI,[16],21100 nM
same,GI50,[17],40.3 nM
same,TGI,[17],7920 nM
same,GI50,[18],198 nM
same,TGI,[18],2520 nM
same,GI50,[19],29.5 nM
same,TGI,[19],17500 nM
same,GI50,[20],< 10 nM
same,TGI,[20],25.8 nM
same,GI50,[21],< 10 nM
same,TGI,[21],40.8 nM
same,GI50,[22],< 10 nM
same,GI50,[23],1090 nM
same,TGI,[23],13200 nM
same,GI50,[24],37.4 nM
same,TGI,[24],21500 nM
same,GI50,[25],18.1 nM
same,TGI,[25],17900 nM
same,GI50,[26],351 nM
same,TGI,[26],2320 nM
same,GI50,[27],1260 nM
same,TGI,[27],2540 nM
same,GI50,[28],63 nM
same,TGI,[28],38300 nM
same,GI50,[29],21.5 nM
same,TGI,[29],23900 nM
same,GI50,[30],98.5 nM
same,TGI,[30],13600 nM
same,GI50,[31],52.4 nM
same,TGI,[31],16900 nM
same,GI50,[32],25700 nM
same,TGI,[32],> 100000 nM
same,GI50,[33],1050 nM
same,TGI,[33],16800 nM
same,GI50,[34],21100 nM
same,TGI,[34],48500 nM
same,GI50,[35],< 10 nM
same,TGI,[35],46900 nM
same,GI50,[36],4350 nM
same,TGI,[36],19700 nM
same,GI50,[37],6100 nM
same,TGI,[37],20200 nM
same,GI50,[38],2550 nM
same,TGI,[38],14500 nM
same,GI50,[39],1590 nM
same,TGI,[39],15000 nM
same,GI50,[40],6610 nM
same,TGI,[40],20400 nM
same,GI50,[41],3580 nM
same,TGI,[41],16300 nM
same,GI50,[42],2050 nM
same,TGI,[42],12400 nM
same,GI50,[43],< 10 nM
same,TGI,[43],23.5 nM
same,GI50,[44],17.3 nM
same,TGI,[44],4580 nM
same,GI50,[45],807 nM
same,TGI,[45],15400 nM
same,GI50,[46],3680 nM
same,TGI,[46],21500 nM
same,GI50,[47],11400 nM
same,TGI,[47],23600 nM
same,GI50,[48],2540 nM
same,TGI,[48],11000 nM
same,GI50,[49],22.5 nM
same,TGI,[49],10500 nM
same,GI50,[50],15600 nM
same,TGI,[50],30300 nM
same,GI50,[51],91.9 nM
same,TGI,[51],3700 nM
same,GI50,[52],75.6 nM
same,TGI,[52],10500 nM
same,GI50,[53],< 10 nM
same,TGI,[53],41.2 nM
same,GI50,[54],577 nM
same,TGI,[54],10600 nM
